US6166067A, “Inhibitors of cholesterol-biosynthesis for reducing the cholesterol content of poultry eggs” (priority 1998, dated 2000)

Experiments:
cholesterol in yolk = assay: Cholesterol in egg yolk, laying-hen feeding trial (Example 2); type: in vivo, laying hens; conditions: for Cholesterol, yolk: control 10.23
Source text: (§1) For the cholesterol determination, the cholesterol esters were cleaved to cholesterol and fatty acid by the action of cholesterol esterase. Free cholesterol is converted by atmospheric oxygen with the involvement of cholesterol oxidase into Δ^4 -cholestenone and hydrogen peroxide. The resulting hydrogen peroxide forms with 4-aminophenazone and phenol through the catalytic action of peroxidase a red dye whose intensity of color is directly proportional to the cholesterol concentration and can be measured at 500 to 550 nm.
(§2) Another feeding experiment was carried out in analogy to Example 1. In this case the intention was to test not only α- and δ-tocotrienol but also a tocotrienol precursor (4-oxo-γ-tocotrienol) and other terpenoids such as farnesyl acetate, perillyl alcohol, linalool and β-ionone, in laying hens.
(§3) The trial protocol corresponds to that in Example 1 but with the following amendments:
(§4) The number of birds comprised 8 hens per treatment.
(§5) Triglyceride and cholesterol were determined in 4 independent yolk pools(each from 6 eggs) and plasma.

plasma cholesterol [1] = assay: Cholesterol in plasma, laying-hen feeding trial (Example 2); type: in vivo, laying hens; conditions: 500 mg/kg feed; control 125.3
Source text: as §1, §2, §3, §4
(§6) 4 birds in each case from the control and the high dosages were sacrificed at the end of the trial. After taking blood to obtain plasma, the birds were completely exsanguinated. The liver was then removed and deep frozen until analyzed.
as §5

triglycerides in yolk = assay: Triglycerides in egg yolk, laying-hen feeding trial (Example 2); type: in vivo, laying hens; conditions: control 170.4
Experimental: (§7) The triglycerides are determined enzymatically via their glycerol content. The triglycerides are cleaved enzymatically by the enzymes lipase and esterase. The resulting glycerol is phosphorylated by ATP to glycerol 3-phosphate in the reaction catalyzed by glycerol kinase GK.
as §2, §3, §4, §5

plasma triglyceride = assay: Triglycerides in plasma, laying-hen feeding trial (Example 2); type: in vivo, laying hens; conditions: 500 mg/kg feed; control 2496
Experimental: as §7, §2, §3, §4, §6, §5

[2] = set-up: species or system laying hens; conditions: in vivo
Experimental: (§8) Tocopherols and tocotrienols in the yolk pools were determined by HPLC. To do this, the sample is hydrolyzed in aqueous alcoholic medium and extracted several times with diethyl ether. Quantification takes place by comparison with external standards.
as §2, §3, §4
(§9) In addition, α-, δ- and 4-oxo-γ-tocotrienol in yolk and liver (treatments 1 to 7) were determined.

[3] = set-up: species or system laying hens; conditions: in vivo; remark: listed apart in the source
Experimental: as §8, §2, §3, §6, §9

[4] = tested on: cholesterol content of poultry eggs; conditions: literature (Huggett et al.; Beyer and Jensen); cited from earlier work
[5] = tested on: triglycerides in the yolk; assay: Triglycerides in egg yolk, laying-hen feeding trial (Example 1); type: in vivo, laying hens (Lohmann Selected Leghorn); conditions: 4 weeks
Experimental: (§10) At the start of the trial, the laying hens (Lohmann Selected Leghorn) had been laying for 28 weeks. One treatment group consisted of 10 hens. The birds were initially fed with the various active ingredients for 4 weeks. The eggs were then collected for the analyses. 3 independent yolk pools were formed from 6 eggs in each case and were deep-frozen until analyzed. Total cholesterol and triglycerides in the yolk were analyzed by enzymatic methods. The analyses were carried out as stated in the handbook "Veterinarmedizinische Laboruntersuchungen fur die Diagnose und Verlaufskontrolle" (1985), 3rd edition, published by Boehringer Mannheim GmbH, Mannheim.
as §7
glycerol+ATP.revreaction.glycerol 3-phosphate+ADP
The resulting ADP is converted by pyruvate kinase (PK) with phosphoenolpyruvate (PEP) back into ATP, with formation of pyruvate. [drawing 6] Pyruvate is hydrogenated to lactate by lactate dehydrogenase (LDH) with NADH, the NADH being oxidized to NAD. [drawing 7]
The amount of NADH consumed during the reaction is equivalent to the amount of glycerol. NADH is the measured variable and can easily be determined from its absorption at Hg 366 nm, Hg 334 nm or 340 nm.
(§11) The data were subjected to analysis of variance, and differences between means were ranged by the Duncan test.

cholesterol = conditions: high doses; cited from earlier work
[6] = tested on: total cholesterol in the yolk; assay: Total cholesterol in egg yolk, laying-hen feeding trial (Example 1); type: in vivo, laying hens (Lohmann Selected Leghorn); conditions: 1000 mg/kg feed; 4 weeks
Experimental: as §10, §1, §11

[7] = Tocopherol and tocotrienol contents in yolk by HPLC (Example 1); type: in vivo, laying hens (Lohmann Selected Leghorn)
Experimental: as §10, §8
Stationary phase: Spherisorb CN 5 μm, 250×4 mm
Mobile phase: n-Hexane with 0.25% i-propanol
Fluorescence detection: 292 nm (extinction) 326 nm (emission)

HMG-CoA reductase = conditions: broilers, supplementation; cited from earlier work
plasma cholesterol [8] = conditions: broilers, when cholesterol was fed at the same time; cited from earlier work
[9] = 1000 mg/kg feed, after hydrolysis

Compound: CC(C)=CCC/C(C)=C/CC/C(C)=C/CC[C@]1(C)CCc2c(C)c(O)c(C)c(C)c2O1 [α-Tocotrienol, α-tocotrienol]
- Cholesterol, yolk (cholesterol in yolk; 50 mg/kg feed): 9.85 mg/g
- Cholesterol, yolk (cholesterol in yolk; 500 mg/kg feed): 9.45 mg/g
- trend in yolk cholesterol content (cholesterol in yolk; Example 2): trend toward reduced cholesterol contents in yolk
- Cholesterol, plasma (plasma cholesterol [1]): 130.3 mg/dL
- Triglycerides, yolk (triglycerides in yolk; 50 mg/kg feed): 189.9 mg/g
- Triglycerides, yolk (triglycerides in yolk; 500 mg/kg feed): 195.1 mg/g
- Triglycerides, plasma (plasma triglyceride): 4195 mg/dL
- effect on β-tocopherol [2]: effect on β-tocopherol only by the α-tocotrienol treatments
- increase for tocotrienols in yolk [2]: most pronounced increase
- detectability in the birds' livers [3]: detectable in the birds' livers
- effect on the cholesterol content in eggs [4]: no effect

Compound: O=C(O)c1cccnc1 [nicotinic acid, reference compound]
- triglyceride content in the yolk ([5]; both dosages (1500 and 15000 mg/kg feed)): significantly increased
- cholesterol-lowering effect (cholesterol): cholesterol-lowering effect

Compound: CC(=O)Oc1c(C)c(C)c2c(c1C)CCC(C)(CCCC(C)CCCC(C)CCCC(C)C)O2 (racemic) [vitamin E (all-rac-α-tocopheryl acetate), all-rac-α-tocopheryl acetate, reference compound]
- effect on cholesterol in the yolk [6]: no effect
- effect on triglycerides in the yolk ([5]; 1000 mg/kg feed): no effect
- α-Tocopherol content in yolk [7, 9]: 23064 μg/yolk
- α-Tocotrienol content in yolk [7, 9]: 227 μg/yolk
- γ-Tocopherol content in yolk [7, 9]: 188 μg/yolk
- δ-Tocopherol content in yolk [7, 9]: 36 μg/yolk
- δ-Tocotrienol content in yolk [7, 9]: 0 μg/yolk
- α-Tocopherol content in yolk ([7]; 1000 mg/kg feed, control 0.48 mg): 23 mg
- effect on γ-tocopherol in the yolk ([7]; high α-tocopherol dosage (1000 mg/kg feed)): reduction in γ-tocopherol in the yolk
- effect on HMG-CoA reductase (HMG-CoA reductase): stimulation of HMG-CoA reductase
- change in plasma cholesterol (plasma cholesterol [8]): increase in plasma cholesterol
